Data on 89 compounds can be found in a melting point compilation (Tetko et al.; mined from patent text by program, amines drawn as free bases though some values may be those of a salt).

Structures are written as SMILES.

For `CC(C)(C)c1cc(NC(=O)Nc2cccc(Cl)c2Cl)c(-c2ccncc2)o1`, the melting point – broadly, the temperature, or range, at which the solid turns liquid – is 195 to 198 °C.

`CCNc1ccc(C2(C)C(=O)Nc3cc(Cl)cc(Cl)c3C2=O)cc1` (centres undefined) came in with a melting point of 197 to 198 °C.

Regarding `O=C(O)C(=NO)c1ccc(OCCOc2ccc3ccccc3c2)cc1`, the melting point was in the range of 178 to 179 °C.

As for `CCN(CC)C(C)CN1CCc2c(c(=O)oc3c(OC)c(OC)ccc23)C1` (centres undefined), the melting point lay in the range of 99 to 100 °C.

As for `CS(=O)(=O)c1ccc(-c2cnn(Cc3ncc(Cl)s3)c(=O)c2-c2ccc(F)cc2)cc1`, the melting point was in the range of 185 to 186 °C.

`CCCCCCC/C=C/C(=O)NCC`: the melting point fell in the range of 38 to 40 °C.

As to `O=C(O)C(CCN1C(=O)c2ccccc2C1=O)CS(=O)(=O)c1ccc(-c2ccccc2)cc1` (centres undefined), the melting point came out at 180 °C.

With `CCCC(=O)Nc1ccc(C2=NNC(=O)NC2C)cc1` (centres undefined), the melting point lay within 232 to 234 °C.

Regarding `Nc1c(Oc2ccc(F)c(C(F)(F)F)c2)ncnc1Oc1ccc(F)c(C(F)(F)F)c1`, the melting point was 104 to 105 °C.

Take `CCc1cnc2c(c1)S(=O)(=O)NC2=O`: the melting point was 199 to 201 °C.

Take `COc1ccc(CNc2cc(OCc3ccccn3)ccc2C(=O)c2cc(OC)c(OC)c(OC)c2)cc1Cl`: the melting point lay in the range of 142 to 144 °C.

`N#Cc1cccc2c1C(=O)C(O)=C(O)C2=O` returned a melting point of 305 to 312 °C.

Consider `N#CS/C=C\C(=O)Oc1ccccc1`, for which the melting point lay within 79 to 83 °C.

The compound `CC(=O)NC(C)(C)CNc1c(C)c(C)n2nnnc2c1[N+](=O)[O-]` showed a melting point of 200 to 202 °C.

Compound `NCc1cc(-c2ccnc(Nc3cccc(OC(F)(F)C(F)F)c3)n2)ccn1` came in with a melting point of 64 to 67 °C.

The compound `CNC(=O)C(NC(=O)c1ccc(F)cc1C(F)(F)F)C(O)CSc1cccc(F)c1` (centres undefined) showed a melting point of 172 °C.

In the case of `CC(C)(C)OC(=O)c1cc(Cl)nc(Cl)c1`, the melting point fell in the range of 79 to 81 °C.

Regarding `CC1CCCC(C)N1NC(=O)Nc1cccc2c1C(=O)c1c-2n[nH]c1-c1ccc(N2CCNCC2)cc1` (centres undefined), the melting point is 270 °C.

In turn, `CC(=O)c1cc(F)ccc1Oc1nc2ccc(-n3cc(-c4ccccc4)nn3)cc2cc1Cc1ccccc1` yielded a melting point of 183 °C.

In the case of `Cc1cc(OC(=O)c2ccccc2)c2ccccc2c1OCc1ccccc1`, the melting point fell in the range of 179 to 180 °C.

`CC(CO)N1c2ccccc2Sc2ccc(C(N)=S)cc21` (racemic) showed a melting point of 152 °C.

Compound `O=c1c2ccc(Cl)cc2[nH]c2c(O)nn(-c3ccc(O)c(Cl)c3)c(=O)c12` had a melting point of 350 to 353 °C.

As for `c1ccc(CN2CCN(Cc3nc4ccccc4[nH]3)CC2)cc1`, the melting point was 195 to 201 °C.

As for `CCOC(=O)c1cnc2nc(C)c(OCC)cc2c1O`, the melting point is 255 to 258 °C.

For the compound `CCCc1nc(SC)c(C(O)CO)n1Cc1ccc(-c2ccccc2S(=O)(=O)NC(=O)NCc2ccccc2)cc1` (centres undefined), the melting point worked out at 140 °C.

Consider `Cn1c([N+](=O)[O-])cnc1CS(=O)c1ccccn1` (centres undefined), for which the melting point worked out at 160 °C.

With `Cc1ccccc1C1CC(=O)c2c(C)ccnc2C1` (centres undefined), the melting point lay in the range of 104 to 106 °C.

As for `CC(C)NCc1ccc(Cn2ccc(OCc3ccc(F)cc3F)c(Cl)c2=O)cc1`, the melting point is 146 to 151 °C.

For the compound `CC(C)c1cccc(S(=O)(=O)n2c(CCCCC(=O)O)cc3cc(C(F)(F)F)ccc32)c1`, the melting point turned out to be 119 °C.

`Fc1cccc(F)c1-c1cncnc1` registered a melting point of 67 to 69 °C.

`CC(C)Oc1c(C(N)=O)n(C)c2ccc(OCc3ccccc3)cc12` gave a melting point of 164 to 166 °C.

`N#Cc1cccc(NC(=O)NCc2cccc3c2C(=O)N(C2CCC(=O)NC2=O)C3=O)c1` (centres undefined) gave a melting point of 228 to 230 °C.

On to `Cc1ccc2c(=O)[nH]c(N3CCN(CCO)CC3)cc2c1`, for which the melting point was in the range of 236 to 237 °C.

For the compound `C1=C(/C=C/c2ccsc2)CCN(Cc2nc3ccccc3[nH]2)C1`, the melting point lay in the range of 216 to 218 °C.

In turn, `CC(C)(C)OC(=O)NCC1=CC(c2ccccc2)Cc2c1ccc(O)c2O` (centres undefined) had a melting point of 175 to 177 °C.

Turning to `CC(C)CC1CCN(CCc2ccccc2)C1=O` (centres undefined), the melting point was 69 to 71 °C.

In the case of `CCn1cc(O)c(=O)cc1CO`, the melting point lay in the range of 143 to 145 °C.

`COc1cc(N)c(Cl)cc1-c1nn(C2CCN(CC3CCCCC3)CC2)c(=O)o1` had a melting point of 186 to 187 °C.

As to `COC(OC)c1cc(C)nc(N)n1`, the melting point was in the range of 69 to 71 °C.

In the case of `CCCC(=O)c1c(C)cc(C)cc1O`, the melting point was 48 to 52 °C.

`COC(=O)C1=CC(=O)CCC1c1ccccc1` (racemic) came in with a melting point of 66 °C.

For the compound `CC(C)(C)ON=C1CCC(NC(=O)Oc2ccc([N+](=O)[O-])cc2)CC1` (centres undefined), the melting point was 132 °C.

For the compound `O=c1c2c(Cl)cc(Cl)cc2n(Cc2ccccc2)c(=O)n1-c1ccccc1`, the melting point fell in the range of 169 to 174 °C.

For `COc1cc(N)c(Cl)cc1C(=O)NCC1CCN(CCCCOc2ccccc2)CC1`, the melting point lay in the range of 71 to 73 °C.

In the case of `COc1ccc(NC(C)=C(C#N)C#N)cc1`, the melting point is 254 to 255 °C.

Regarding `C[C@H]1C(=O)C[C@@H]2C[C@H]1OO[C@]2(C)/C=C\c1cc(C(F)(F)F)nc2cc(C(F)(F)F)ccc12`, the melting point was 160 °C.

Compound `O=S1(=O)c2sccc2C=C(CO)N1CCN1CCOCC1` gave a melting point of 119 to 121 °C.

In turn, `CCOC(=O)c1cc([N+](=O)[O-])c(=O)[nH]c1C(=O)OCC` showed a melting point of 144 to 145 °C.

`CCn1c2ccccc2c2cc([N+](=O)[O-])ccc21` registered a melting point of 118 to 120 °C.

For the compound `O=C(O)/C=C/c1ccc2c(/C=C/C(=O)O)c[nH]c2c1`, the melting point is greater than 360 °C.

Take `CCOC(=O)C1(C(=O)OCC)CCC2(NCCc3cc(OC)c(OC)cc32)C(C2=NCCc3cc(OC)c(OC)cc32)C1` (centres undefined): the melting point was in the range of 116 to 118 °C.

In turn, `Cc1cc(CN2CCC(N(C)S(=O)(=O)c3ccc(Nc4nccc(Nc5ccc(F)c(C)c5)n4)cc3)CC2)[nH]n1` yielded a melting point of 130 °C.

Compound `O=C1N(Cc2cccnc2)c2ccccc2C12COc1cc(F)c(F)cc12` (centres undefined) had a melting point of 175 to 177 °C.

For `O=C(O)c1cccc(-c2ccn(-c3ccc(OC(F)F)cc3)n2)c1`, the melting point lay in the range of 182 to 183 °C.

The compound `CC(C)(C)c1ocnc1C=C(O)C(=O)N[C@@H](Cc1ccccc1)C(N)=O` returned a melting point of 50 to 53 °C.

For `CN(Cc1ccccc1)C1CCN(c2c(F)cc([N+](=O)[O-])c(F)c2CCl)C1` (centres undefined), the melting point was in the range of 94 to 98 °C.

On to `CC(C)(C)C(C)(O)C(Cn1cncn1)Oc1ccc(Cl)cc1` (centres undefined), for which the melting point came out at 150 °C.

`COc1ccc(N(C(C)=O)C2=NN(c3ccc([N+](=O)[O-])cc3)C(=O)C2)cc1` came in with a melting point of 165 to 167 °C.

The compound `O=C(O)c1ccc(NCCc2cccs2)cc1` displayed a melting point of 161 to 163 °C.

Compound `NC(=O)c1c(F)ccc(OCc2nc3cc(-c4ccncc4)ccc3s2)c1F` showed a melting point of 255 to 258 °C.

`CCCNC(=S)NCCCCn1c(-c2ccccc2)nc2c(N)nc3ccccc3c21`: the melting point lay within 113 to 116 °C.

On to `CCCCCCCCCCCCCCCCCC(=O)NCC(C)(C)NCC(O)c1cc(Cl)c(N)c(Cl)c1` (centres undefined), for which the melting point was in the range of 74 to 76 °C.

Compound `CN(C)C(N)=Nc1cc(Cl)ccc1N1CCOCC1` gave a melting point of 135 to 138 °C.

Consider `CC1Sc2c(C(=O)O)c(=O)c3cc(F)c(N4CCC(N)C4)cc3n21` (centres undefined), for which the melting point was in the range of 238 to 240 °C.

The compound `O=CN(O)CCCC(O)CS(=O)(=O)c1ccccc1Oc1ccc(OC(F)(F)F)cc1` (centres undefined) displayed a melting point of 92 to 93.9 °C.

Regarding `O=C(O)COc1nnc(-c2ccc3c(c2)CCO3)o1`, the melting point was in the range of 151 to 153 °C.

The compound `CSc1ccc(C(CC2CCCC2)C(=O)Nc2ccc([N+](=O)[O-])cn2)cc1C(F)(F)F` (centres undefined) yielded a melting point of 109 to 110 °C.

Compound `CCOC(=O)C(=O)CC(=O)/C=C/c1ccc(Cl)cc1F` gave a melting point of 84 to 85 °C.

In turn, `CCOC(=O)C1=C(C)N2CCCC2=C(C(C)=O)C1c1ccccc1C#N` (centres undefined) showed a melting point of 167 °C.

As for `CCc1cnc(NC(=O)C(c2ccccc2)c2ccccc2)o1`, the melting point lay in the range of 148 to 149 °C.

As for `Fc1ccc(-c2cc(C(F)(F)F)n3ncc(-c4cccnc4)c3n2)cc1Cl`, the melting point is 190 °C.

With `O=[N+]([O-])CC(SC(=S)N1CCCCC1)c1ccccc1` (centres undefined), the melting point was 86 to 90.5 °C.

As for `Clc1ccc2c(C3=CCNCC3)c[nH]c2c1`, the melting point lay in the range of 181 to 185 °C.

On to `CC(C)(C)c1cc(-c2nc(O)ns2)cc(C(C)(C)C)c1O`, for which the melting point is 230 to 232 °C.

For the compound `CC(=O)OC[C@H]1O[C@@H](Cn2ccc(=S)[nH]c2=O)[C@@H](OC(C)=O)[C@@H]1OC(C)=O`, the melting point was 100 to 105 °C.

`CNC(=S)NCCSCc1nscc1Br` returned a melting point of 62 to 63 °C.

`Cn1cc(Br)cc(Nc2ccc(N3CCN(CCF)CC3)cn2)c1=O` showed a melting point of 141 to 143 °C.

In the case of `COc1cc(-c2ccc(F)cc2)nc(-c2ccccn2)n1`, the melting point was 97 to 98 °C.

`COc1cc2c(Nc3ccc(Cl)cc3F)ncnc2cc1OCCS(C)(=O)=O`: the melting point was 227 to 230 °C.

As for `COc1ccc(ONc2ccccc2)cc1`, the melting point was 70 to 73 °C.

For `COc1ccc2c(c1)c1c3c(c(-c4ccccc4)cc1n2CCC(N)=O)C(=O)NC3=O`, the melting point is 266 to 270 °C.

`CCc1nn(C2CCC2)c2cc(C(=O)Nc3c(Cl)cncc3Cl)ccc12` registered a melting point of 166 to 168 °C.

As to `CC(=O)OC(C(Oc1ccc(Cl)cc1)n1cncn1)C(C)(C)CCl` (centres undefined), the melting point lay in the range of 111 to 117 °C.

`CN(C)c1ccc([N+](=O)[O-])c(C(=O)O)c1` came in with a melting point of 185 to 187 °C.

Compound `COC(=O)C(CC(=O)c1ccccc1)SC(C)=O` (centres undefined) had a melting point of 53.5 to 54 °C.

`CNC(=O)C(C)(C)N=NC(C)(C)C(=O)NC`: the melting point worked out at 153 °C.

On to `CC(C(=O)O)c1cccc(C(=O)c2cc3sccc3s2)c1` (centres undefined), for which the melting point worked out at 133 °C.

In the case of `COc1ccc(-c2cccc([N+](=O)[O-])c2C)cn1`, the melting point was 81 to 83 °C.

As for `O=C1N(Cc2ccc(N3CCOCC3)cn2)c2ccccc2C12COc1cc3c(cc12)OCCO3` (centres undefined), the melting point is 204 to 206 °C.
